System: mechanically ventilated, adult patients admitted to the intensive care unit (ICU)
Assay: Example 2: prospective, randomized, controlled study, mortality analysis
Type: in vivo, human
From the text: All mechanically ventilated, adult patients admitted to the intensive care unit (ICU) were eligible for inclusion.
All mechanically ventilated, adult (age>18y) patients admitted to our 56-bed, mainly surgical, ICU from Feb. 2, 2000 onward were considered eligible for inclusion. […] Informed consent was obtained from the closest family member. The study protocol was approved by the Institutional Review Board of the Catholic University of Leuven School of Medicine.
Consecutive patients were randomly assigned to one of these two treatment groups using blinded envelopes, stratified according to type of critical illness diagnosed on admission [(a) neurological disease, cerebral trauma or surgery; (b) cardiac surgery; (c) thoracic surgery and/or respiratory insufficiency; (d) abdominal surgery/peritonitis; (e) vascular surgery; (f) multiple trauma or severe burns: (g) organ transplantation; (h) others, mainly extensive oncological procedures] and balanced with the use of permuted blocks of ten.
All patients were fed continuously, on admission with mainly intravenous glucose (200-300 g/24 h) and from the next day onward with a standardised feeding schedule aiming for a caloric content up to 20-30 non-protein Calories/kg/24 h and a balanced composition (0.13-0.26 g nitrogen/kg/24 h and 20%-40% of non-protein Calories as lipids) of either total parenteral, combined parenteral/enteral or full enteral feeding, the latter mode attempted as early as possible. Other comcomitant ICU therapy was left to the discretion of attending physicians.
In patients treated in ICU for more than one week, a weekly electromyography (EMG) was performed to screen for Critical Illness Polyneuropathy. EMGs were interpreted by the same electrophysiologist who was blinded for randomization. In case of ICU death, a post-mortem examination was performed to confirm the presumed cause of death.
The primary outcome measure was death from all causes during intensive care. Secondary outcome measures were in-hospital mortality, incidence of prolonged intensive care dependency and need for ICU re-admission, need for vital organ system support comprising mechanical ventilatory support, renal replacement therapy (continuous or intermittent hemofiltration or dialysis), inotropic or vasopressor support, incidence of critical illness polyneuropathy, the degree of inflammation, incidence of blood stream infections and use of antibiotics, transfusion requirements and incidence of hyperbilirubinemia. Furthermore, use of intensive care resources was analysed by cumulative TISS scores. In order to accurately and objectively assess duration of ICU stay, which is often influenced by non-patient related factors such as bed availability on regular wards, patients were defined ‘dischargable from ICU’ when they were no longer in need of vital organ system support and received at least ⅔rd of the caloric need through the normal enteral route or earlier when actually sent to a ward.
We hypothesized to detect a difference in mortality selectively in long-stay (>5 days) critically ill patients. Since prolonged ICU stay is not predictable at ICU admission, and since we aimed at treatment from admission onward, we chose to include all mechanically ventilated patients admitted to the ICU, without selection. We estimated that inclusion of 2500 admissions would be needed to rule out an absolute difference in mortality of ±5% in the long-stay cohort which would translate in an absolute risk reduction of ±2% for overall ICU mortality (2-sided alfa level of <0.05). […] All analyses were done on intention to treat basis.
Baseline and outcome variables were compared using Student's t-test, Chi-square test and Mann-Whitney-U test, as appropriate. Death odds ratios were calculated using multivariate logistic regression analysis.

Substance: insulin
- Causes of death during intensive care - total no: cardiogenic shock (IIS): 10
- Causes of death during intensive care - total no: multiple organ failure with proven septic focus (IIS): 8
- Causes of death during intensive care - total no: multiple organ failure, no detectable septic focus (IIS): 14
- Causes of death during intensive care - total no: severe brain damage (IIS): 3
- ICU deaths among patients staying >5 days (%) (IIS): (10.6%)
- ICU deaths among patients staying >5 days - total no. (IIS): 22
- ICU deaths among patients staying ≤5 days (%) (IIS): (2.3%)
- ICU deaths among patients staying ≤5 days - total no. (IIS): 13
- ICU deaths, abdominal surgery/peritonitis (%) (IIS): (13.3%)
- ICU deaths, abdominal surgery/peritonitis - total no (IIS): 6
- ICU deaths, cardiac surgery (%) (IIS): (2%)
- ICU deaths, cardiac surgery - total no. (IIS): 10
- ICU deaths, multiple trauma or severe burns (%) (IIS): (12.1%)
- ICU deaths, multiple trauma or severe burns - total no. (IIS): 4
- ICU deaths, neurological disease, cerebral trauma or surgery (%) (IIS): (18.1%)
- ICU deaths, neurological disease, cerebral trauma or surgery - total no. (IIS): 6
- ICU deaths, other types of critical illness (%) (IIS): (8.7%)
- ICU deaths, other types of critical illness - total no (IIS): 25
- ICU deaths, others (%) (IIS): (0%)
- ICU deaths, others - total no (IIS): 0
- ICU deaths, thoracic surgery and/or respiratory insufficiency - total no. (IIS): 5
- ICU deaths, transplantation (%) (IIS): (4.3%)
- ICU deaths, transplantation - total no (IIS): 2
- ICU deaths, vascular surgery (%) (IIS): (6.6%)
- ICU deaths, vascular surgery - total no. (IIS): 2
- In-hospital deaths among patients staying >5 days in ICU (%) (IIS): (16.8%)
- In-hospital deaths among patients staying >5 days in ICU - total no. (IIS): 35
- In-hospital deaths among patients staying ≤5 days in ICU (%) (IIS): (3.6%)
- In-hospital deaths among patients staying ≤5 days in ICU - total no. (IIS): 20
- Mortality in bacteremic patients (IIS): 12.5%
- ICU deaths among patients staying >5 days, NNT (IIS vs RIS): 11
- ICU deaths among patients staying >5 days, RRR (%) (IIS vs RIS): 47%
- ICU deaths among patients staying ≤5 days, RRR (%) (IIS vs RIS): =
- ICU deaths, NNT to save one life (IIS vs RIS): 29
- ICU deaths, RRR (%) (IIS vs RIS): 43%
- In-hospital deaths among patients staying >5 days in ICU, NNT (IIS vs RIS): 11
- In-hospital deaths among patients staying >5 days in ICU, RRR (%) (IIS vs RIS): 36%
- In-hospital deaths among patients staying ≤5 days in ICU, RRR (%) (IIS vs RIS): =
- In-hospital deaths, NNT (IIS vs RIS): 27
- In-hospital deaths, RRR (%) (IIS vs RIS): 34%
- ICU mortality, absolute risk reduction in the prolonged critically ill cohort (IIS vs RIS, ICU stay >5 days): 9.6%
- ICU deaths - total no. (IIS, N = 765): 35
- In-hospital deaths - total no. (IIS, N = 765): 55
- Causes of death during intensive care - total no: cardiogenic shock (RIS): 7
- Causes of death during intensive care - total no: multiple organ failure with proven septic focus (RIS): 33
- Causes of death during intensive care - total no: multiple organ failure, no detectable septic focus (RIS): 18
- Causes of death during intensive care - total no: severe brain damage (RIS): 5
- ICU deaths among patients staying >5 days (%) (RIS): (20.2%)
- ICU deaths among patients staying >5 days - total no. (RIS): 49
- ICU deaths among patients staying ≤5 days (%) (RIS): (2.6%)
- ICU deaths among patients staying ≤5 days - total no. (RIS): 14
- ICU deaths, abdominal surgery/peritonitis (%) (RIS): (15.5%)
- ICU deaths, abdominal surgery/peritonitis - total no (RIS): 9
- ICU deaths, cardiac surgery (%) (RIS): (5%)
- ICU deaths, cardiac surgery - total no. (RIS): 25
- ICU deaths, multiple trauma or severe burns (%) (RIS): (8.6%)
- ICU deaths, multiple trauma or severe burns - total no. (RIS): 3
- ICU deaths, neurological disease, cerebral trauma or surgery (%) (RIS): (23.3%)
- ICU deaths, neurological disease, cerebral trauma or surgery - total no. (RIS): 7
- ICU deaths, other types of critical illness (%) (RIS): (13.1%)
- ICU deaths, other types of critical illness - total no (RIS): 38
- ICU deaths, others (%) (RIS): (17.1%)
- ICU deaths, others - total no (RIS): 6
- ICU deaths, thoracic surgery and/or respiratory insufficiency (%) (RIS): (17.9%)
- ICU deaths, thoracic surgery and/or respiratory insufficiency - total no. (RIS): 10
- ICU deaths, transplantation (%) (RIS): (2.3%)
- ICU deaths, transplantation - total no (RIS): 1
- ICU deaths, vascular surgery (%) (RIS): (6.3%)
- ICU deaths, vascular surgery - total no. (RIS): 2
- In-hospital deaths among patients staying >5 days in ICU (%) (RIS): (26.3%)
- In-hospital deaths among patients staying >5 days in ICU - total no. (RIS): 64
- In-hospital deaths among patients staying ≤5 days in ICU (%) (RIS): (3.9%)
- In-hospital deaths among patients staying ≤5 days in ICU - total no. (RIS): 21
- Mortality in bacteremic patients (RIS): 29.5%
- ICU deaths - total no. (RIS, N = 783): 63
- In-hospital deaths - total no. (RIS, N = 783): 85
- ICU mortality among the RIS patients actually receiving insulin (RIS, insulin-receiving patients): 12.4%

— patent US7446091B2, “Methods and preparations for curing clinically ill patients” (Novo Nordisk A/S, priority 2000, dated 2008)
